Source: PMC5785531, “Pharmacokinetic parameters explain the therapeutic activity of antimicrobial agents in a silkworm infection model” (Scientific Reports, 2018)
Converted amounts (≈) assume the structure as drawn.

Tests used:
[1] = Metabolism in pooled human liver S9 fractions; format: in vitro ADME; conditions: 40 µg/ml compound; pooled human liver S9, NADPH, 37 °C; 10, 20, 30 min; HPLC
Protocol: Metabolism of the compounds was determined according to Yang et al.[38] with slight modifications. Briefly, reaction mixture containing 5 mM MgCl2, 2 mM NADPH, 20 µg/ml pooled human liver S9 fractions (Sekisui Xenotech, KS, USA) in 0.05 M Tris-HCl buffer (pH 7.4) was pre-incubated at 37 °C for 5 min. The reaction was initiated by the addition of 40 µg/ml compound 5 or compound 7 and incubation was continued. Aliquots (100 µl) were collected at 10, 20, and 30 min, and an equal volume of acetonitrile was added. The resulting mixture was analyzed by HPLC equipped with a Waters 2998 Photodiode Array Detector and a Waters 2707 Autosampler using a Senshu-Pak Pegasil ODS-SP-100 column (4.6 Ø × 250 mm) with gradient elution of 50–100% acetonitrile for 30 min at the flow rate of 1 ml/min. Statistical analysis was performed using Prism 5 for Mac OS X, version 5.0 f (GraphPad Software).

S. aureus MRSA4 = assay: MIC against S. aureus MRSA4 in vitro (broth dilution); format: cell-based; conditions: Staphylococcus aureus
Description: We synthesized 50 compounds (Fig. 2, Supplementary Table 1) using the Steglich esterification scheme[31] in the presence of a […], 1-ethyl-3-(3-dimethylaminopropyl)-carbodiimide hydrochloride (Fig. 1b). Antimicrobial activities of the compounds were examined by determining the MIC against S. aureus MRSA4 in vitro; therapeutic activities were examined using a systemic infection model of silkworms infected with S. aureus MSSA1. […]
Antimicrobial activity was assessed by determining the MIC by broth dilution assay according to our previous reports[21],[35],[36] as per the Clinical and Laboratory Standards Institute[37]. Briefly, serial dilutions of compound 5, compound 7, and positive controls were prepared in cation-adjusted Mueller-Hinton Broth (MHB, Difco, Franklin Lakes, NJ, USA), 100 µl of which was dispensed into each well of a round-bottomed 96-well plate. The final concentrations in the well ranged from 128 µg/ml to 0.0625 µg/ml. Bacteria were grown at 37 °C overnight on either Luria Bertani (tryptone 10 g/l, yeast extract 5 g/l, NaCl 10 g/l) or Tryptic Soy Broth (TSB, Difco) agar plates or sheep blood agar plates (Eiken Chemical Co. Ltd., Tokyo, Japan). Bacterial inoculum was prepared by direct suspension of the colonies in 0.9% saline, and adjusted to obtain a turbidity equivalent to a 0.5 McFarland standard using a spectrophotometer UV-1280 (Shimadzu Corp., Kyoto, Japan). The suspension was then diluted 1:20 in cation-adjusted MHB (Difco), and 10 µl of it was inoculated into each well of previously prepared 96-well plates containing compounds to obtain approximately 5 × 10^4 colony forming units/well and incubated at 37 °C for 20 h. […] Vancomycin (Wako Pure Chemicals) or norfloxacin (Sigma Aldrich, St Louis, MO, USA) were used as positive controls. Each plate contained a growth control well and a vehicle control well. The MIC was determined as the minimum concentration that inhibited the growth of the bacteria.

[2] = Pharmacokinetics in silkworm hemolymph after intra-hemolymph injection; format: in vivo, Silkworms (Bombyx mori); conditions: for Cmax / AUC(0-t) / k el / AUC(0-inf) / C0 / clearance / MRT inf / Vd / half-life: Hu•Yo × Tsukuba•Ne, 50 ug, injected dose 50 μg intra-hemolymph; for AUC(0-t): 0 to last measured value (5 h); for k el: PKSolver non-compartment analysis, read-out: Lambda_z (converted); for AUC(0-inf): extrapolated to infinity; for C0: read-out: C0 (initial concentration, extrapolated time-zero value); for clearance: read-out: Cl (total clearance); for MRT inf: read-out: MRT 0-inf (mean residence time) (converted); for Vd: read-out: Vss (volume of distribution at steady state); for half-life: read-out: t1/2 (half-life at terminal phase)
Protocol: To gain an insight into the reason for the difference in the therapeutic activities of compounds 5 and 7, we evaluated the pharmacokinetic properties of both compounds in vivo in silkworms. We injected silkworms into the hemolymph with compound 5 or compound 7 (50 µg each) and collected the hemolymph from each injected silkworm at different time-points for high performance liquid chromatography (HPLC) analysis. The concentration-time profile was plotted and the pharmacokinetic parameters were analyzed using PKSolver[32] (Fig. 3a,b). […] The volume of distribution at steady state (Vss) value of compound 7 was larger than that of compound 5, further indicating the higher distribution capacity of compound 7 compared with compound 5. The concentrations of compounds 5 and 7 in the hemolymph decreased with time, with compound 7 having faster rate of elimination than compound 5. At 5 h, the concentration of compound 5 in the hemolymph was approximately 10-fold higher than that of 7. […] Both the area under the curves (AUC) at 5 h and that extrapolated to infinity were higher for compound 5 than for compound 7 in the silkworm.
Silkworms larvae hatched from eggs (Hu•Yo × Tsukuba•Ne, Ehime Sanshu, Ehime, Japan) were fed Silkmate 2S (Nosan Corporation, Yokohama, Japan) and grown at 27 °C until the fourth molt stage. They were, then, fed an antibiotic-free artificial food, Silkmate (Katakura Industries Co., Ltd., Tokyo, Japan), on the first day of fifth-instar larval stage. The next day, larvae (~2 g) were injected into the hemolymph with 50 µg of compounds 5 and 7 using a 1 ml syringe with a 27 G needle (Terumo Corporation, Tokyo, Japan). Silkworms were incubated after injection at 27 °C without feeding. The hemolymph was harvested from the limbs of individual silkworms at the indicated time, and the silkworms were killed after the harvest. The harvested hemolymph was mixed with an equal volume of acetonitrile followed by centrifugation at 15, 000 rpm for 10 min at 4 °C. The supernatant was collected, evaporated, and dissolved into 50% acetonitrile. The samples thus prepared were analyzed by high performance liquid chromatography (HPLC) equipped with a Waters 2998 Photodiode Array Detector (Waters Corporation, Milford, MA, USA) and a Waters 2707 Autosampler (Waters) using a Senshu-Pak Pegasil ODS-SP-100 column (4.6 Ø × 250 mm; Senshu Scientific, Tokyo, Japan) with gradient elution of 50–100% acetonitrile for 30 min at a flow rate of 1 ml/min. Standard curves for each compound were drawn by measuring the peak area on HPLC charts, and the amounts of each compound in the sample were determined. Mean concentrations from triplicate experiments were determined for each time-point and the pharmacokinetic parameters were determined using the PKSolver 2.0 ‘add-in’ for Excel 2007 on a computer running Windows 7[32]. Non-compartment analysis was performed with area under the curve calculated using the linear trapezoidal method. The terminal elimination slope, λz was calculated based on default parameters. Statistical analysis was performed using Prism 5 for Mac OS X, version 5.0 f (GraphPad Software, La Jolla, CA).

[3] = MRSA, MRSA4 (clinical isolate), median of three experiments (Table 1)
[4] = S. aureus MRSA4 in vitro, SAR series (Fig. 2)

SMILES	metabolism by human liver S9 fractions [1]	MIC (S. aureus MRSA4; [3]) [µg/mL]	MIC (S. aureus MRSA4; [4]) [µg/mL]	Cmax [2] [ng/mL]	AUC(0-t) [2] [ng·h/mL]	k el [2] [s⁻¹]	AUC(0-inf) [2] [ng·h/mL]	C0 [2] [ng/mL]	clearance [2] [mL/min]	MRT inf [2] [h]	Vd [2] [L]	half-life [2] [h]	concentration in the hemolymph relative to compound 7 ([2]; at 5 h after injection of 50 µg)
O=C(OCc1cc(Cl)cc(Cl)c1)c1ccc([N+](=O)[O-])s1 [compound 5]	slowly metabolized compared with compound 7	0.5 (≈ 1.51 µM)	0.5 (≈ 1.51 µM)	23000	3000	8.33e-05	3480	24000	0.23	2.08	0.03	2.33	approximately 10 fold
O=C(OCc1ccccc1)c1ccc([N+](=O)[O-])s1 [compound 7]	–	1 (≈ 3.8 µM)	1 (≈ 3.8 µM)	7000	733	0.000217	733	7000	1.1	0.733	0.044	0.883	–
